Data reported in ChEMBL document CHEMBL1155065, “A serine protease inhibitor from hemolymph of green mussel, Perna viridis” (Bioorg Med Chem Lett, 2008).
Activity calls are given as the source filed them. No cut-off for these calls is given here.

Columns and labels:
[1] = Inhibition of trypsin by Dixon plot
[2] = Inhibition of trypsin by classical double reciprocal plot
[3] = Inhibition of trypsin at 32 degC
[4] = Inhibition of trypsin at 37 degC
[5] = Inhibition of trypsin at 42 degC
[6] = Inhibition of chymotrypsin
[7] = Inhibition of trypsin

Ki [1]: 97.1 µM
Ki [2]: 105 µM
Ki [3]: 102 µM
Ki [4]: 97.1 µM
Ki [5]: 94 µM
Activity [6]: inactive
IC50 [7]: 102 µM
Compound: O=C(O)c1ccc(C(=O)O)c2c1c(C(=O)O)c1cccnc1[n+]2C(=O)O
